Data published in patent US20260376293A1, “METHODS FOR STUDYING GPR158 PHARMACOLOGY AND IDENTIFICATION OF ITS LIGANDS” (UNIVERSITY OF FLORIDA RESEARCH FOUNDATION, INCORPORATED, priority 2022, published 2026).

Target: T1, GPR158 (Homo sapiens, UniProt Q5T848)
T1 sequence (Q5T848 24-1215): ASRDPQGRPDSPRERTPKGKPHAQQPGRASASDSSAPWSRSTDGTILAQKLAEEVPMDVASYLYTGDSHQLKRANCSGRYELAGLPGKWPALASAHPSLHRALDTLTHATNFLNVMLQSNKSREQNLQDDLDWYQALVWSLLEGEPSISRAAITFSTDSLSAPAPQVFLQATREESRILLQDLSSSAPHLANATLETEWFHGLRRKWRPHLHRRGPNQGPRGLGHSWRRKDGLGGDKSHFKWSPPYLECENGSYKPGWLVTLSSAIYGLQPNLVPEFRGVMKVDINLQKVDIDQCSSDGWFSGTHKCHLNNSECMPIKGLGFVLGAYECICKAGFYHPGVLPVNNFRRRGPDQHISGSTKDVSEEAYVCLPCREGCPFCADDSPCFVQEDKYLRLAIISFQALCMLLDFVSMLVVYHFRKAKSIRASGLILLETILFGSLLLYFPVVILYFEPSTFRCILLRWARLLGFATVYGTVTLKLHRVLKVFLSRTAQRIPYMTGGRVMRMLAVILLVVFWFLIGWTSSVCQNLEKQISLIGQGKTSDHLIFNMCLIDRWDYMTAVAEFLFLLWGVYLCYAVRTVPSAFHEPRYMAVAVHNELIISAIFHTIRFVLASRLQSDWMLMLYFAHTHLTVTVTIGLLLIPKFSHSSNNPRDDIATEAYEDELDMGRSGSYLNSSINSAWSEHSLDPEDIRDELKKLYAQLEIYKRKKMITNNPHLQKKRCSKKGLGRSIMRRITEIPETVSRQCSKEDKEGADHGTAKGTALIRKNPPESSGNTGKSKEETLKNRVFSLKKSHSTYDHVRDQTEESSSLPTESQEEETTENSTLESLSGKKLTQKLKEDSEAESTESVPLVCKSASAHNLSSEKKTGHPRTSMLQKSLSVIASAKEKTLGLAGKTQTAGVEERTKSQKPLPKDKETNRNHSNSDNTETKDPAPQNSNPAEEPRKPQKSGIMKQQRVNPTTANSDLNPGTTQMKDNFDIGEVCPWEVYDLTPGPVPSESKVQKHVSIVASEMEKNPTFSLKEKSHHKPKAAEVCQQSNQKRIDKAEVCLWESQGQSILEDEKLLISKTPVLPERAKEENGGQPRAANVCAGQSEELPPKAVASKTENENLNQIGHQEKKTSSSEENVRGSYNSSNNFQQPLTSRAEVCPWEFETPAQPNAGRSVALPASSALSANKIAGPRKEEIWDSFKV
Assay: BRET G protein activation assay
Format: cell-based
Parameters: expressed in transfected cells; host or cells: HEK293FT
Details: panel of Gα subunits; 0.1 mM; HEK293 cells
Method: FIGS. 5A-5I. Lack of the effects of glycine or taurine on GPR158 coupling to G proteins. A) Schematic of the assay design to monitor GPCR induced G protein activation. B-I) Representative traces evaluating G protein activation in BRET-based assay. The assay measures generation of the BRET signal between Gβγ and its reporter masGRK3CT-NLuc co-transfected into HEK293 cells with indicated Gα. The reaction is initiated by the addition of glycine (0.1 mM, square symbols) or taurine (0.1 mM triangle symbols) to GPR158 expressing cells. Control reactions conducted in parallel utilized canonical receptors and their ligands at 0.1 mM. The arrow indicates the injection time point of the ligand.
The inventors further tested whether glycine or taurine could induce GPR158 to activate G proteins as canonical GPCRs do. In these experiments, the inventors used a reverse strategy where the inventors monitored generation of the BRET signal in the same assay (FIG. 5A).
Measurements of BRET between Venus-Gβ1γ2 and masGRK3ct-Nluc were performed to monitor the release of free Gβγ dimers after activation of heterotrimers containing Gα subunits in living cells (described in detail in Masuho et al., 2015 (40)). […] An empty vector pcDNA3.1(±) was used in order to normalize the quantity of transfected DNA. […]

G protein activation via GPR158	Compound
no significant signal generation	NCC(=O)O [glycine]
no significant signal generation	NCCS(=O)(=O)O [taurine, 2-aminoethanesulfonic acid]
